According to US5750354A, “Lipoxin transport system and uses therefor” (priority 1994, dated 1998):
“Also recorded” adds a separate entry of the source.

How the values were obtained:
[1] = system: retinoic acid-induced HL-60 cells; assay: [3H]LXA4 uptake into retinoic acid-induced HL-60 cells; assay type: cell-based, human; conditions: Medium, 5 nM, 1-30 min
Protocol: (§1) HL-60 Cells: HL-60 cells were seeded into RPMI medium supplemented with 100 U/ml penicillin, 100 μg/ml streptomycin, and 10% fetal calf serum (Hyclone, Logan, Utah) and grown at 37° C. in 250 ml flasks in a 5% CO2 /95% air atmosphere. Cells were induced to differentiate toward a neutrophil-like phenotype by exposure to 1 μM retinoic acid for 5 days.
(§2) Human red cells, lymphocytes, and platelets were isolated from peripheral blood as described under Methods. Undifferentiated HL-60 cells were grown in culture according to standard protocols. Differentiated HL-60 cells were obtained by exposing cells to 1 μM retinoic acid for 5 days in culture. After harvesting and isolation, all cells were kept in the standard medium for 1 hour at 37° C. prior to assay. […] Results represent the means±SEM of three-four separate experiments for each cell type.

human neutrophils = conditions: not told
[2] = system: renal vasoconstrictor actions of LTD4; conditions: prior exposure, nM; cited from earlier work
lipoxin transport system = assay: [3H]LXA4 influx into human neutrophils (unidirectional tracer flux); conditions: combined data: Control, 0.4 mM SITS, 1 mM probenecid, Na+-free medium, high K+ medium; 5 nM LXA4
[3] = nM levels; cited from earlier work
[4] = molecular target: T1, specific lipoxin receptors (Homo sapiens, UniProt P25090); conditions: 4° C.; cited from earlier work
T1 sequence (P25090 1-351): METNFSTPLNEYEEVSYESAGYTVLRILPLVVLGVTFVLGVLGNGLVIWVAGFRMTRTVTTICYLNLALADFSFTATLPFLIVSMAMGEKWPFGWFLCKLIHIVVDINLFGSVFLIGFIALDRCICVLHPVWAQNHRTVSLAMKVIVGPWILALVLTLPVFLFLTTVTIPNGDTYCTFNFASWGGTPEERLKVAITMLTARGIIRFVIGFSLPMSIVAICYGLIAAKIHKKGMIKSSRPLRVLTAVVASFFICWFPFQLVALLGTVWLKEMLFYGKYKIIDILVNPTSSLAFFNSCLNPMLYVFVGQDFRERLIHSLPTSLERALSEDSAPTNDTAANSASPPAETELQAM

asthmatic patients = conditions: micromolar amounts via inhalation; cited from earlier work
[5] = cited from earlier work
[6] = system: polymorphonuclear leukocytes; conditions: cited from earlier work
[7] = system: undifferentiated HL-60 cells; assay: [3H]LXA4 uptake into undifferentiated HL-60 cells; assay type: cell-based, human; conditions: Medium, 5 nM, 1-30 min
Protocol: as §1, §2

neutrophils [8] = conditions: 37° C.; cited from earlier work
[9] = system: unstimulated human erythrocytes; assay: [3H]LXA4 uptake into erythrocytes; assay type: cell-based; conditions: Medium, 5 nM, 1-30 min
Protocol: Red Blood Cells (RBC): RBC were obtained directly from the heparinized blood of normal human donors. During repeated (four) washing steps, the uppermost portion of the cell pellets was aspirated and discarded to remove residual minor contamination of buffy coat cells.
as §2

[10] = system: myeloid bone marrow colony formation; conditions: 10^-10 M range, with suboptimal GM-CSF; cited from earlier work
[11] = RP-HPLC analysis of LXA4 integrity after exposure to inhibitors; assay type: physicochemical; conditions: 30 min of exposure
protein kinase C (PKC) = conditions: about 10 nM; cited from earlier work
[12] = system: human mononuclear cell-colony formation; conditions: cited from earlier work
[13] = system: unstimulated human platelets; assay: [3H]LXA4 uptake into platelets; assay type: cell-based; conditions: Medium, 5 nM, 1-30 min
Protocol: Platelets: Platelets were purified to homogeneity from acid citrate dextrose-treated blood according to established protocols (Romano, M. and Serhan, C. N. (1992) Biochemistry 31:8269-8277).
as §2

neutrophils [14] = assay: Phagocytosis of opsonized sheep red blood cells by neutrophils; assay type: cell-based, human
Protocol: Neutrophils were prepared as described in the general methodology and suspended at a concentration of 10×10^6 -15×10^6 cells/ml in Hepes Hanks buffer, pH 7.4, supplemented with 1 mg/ml BSA, 1 mg/ml glucose, 0.5 mM MgCl2 and 1.0 mM CaCl2 --2H2 O.
The sheep red blood cells (SRBCs) were prepared by washing the cells with 1× veronal-buffered saline (VBS), incubating the cells with a 1:500 dilution of rabbit anti-SRBC IgG antibody at 37° C. for 15 minutes, centrifuging the cells at 2000 rpm for 5 minutes at 4° C. and washing the cells twice with 1×VBS. SRBCs were resuspended at a final concentration of 10×10^8 cells/ml.
Each component was pipetted separately to the bottom of a 12×75 mm test tube to allow thorough mixing of the components.
To each 100 μl mixture was added 15 μl of opsonized SRBCs to start the phagocytosis reaction. The tubes were vortexed and placed in a 37° C. incubator for 30 minutes. After 30 minutes, the tubes were placed on ice to stop the reaction.
Non-phagocytosed SRBCs were lysed by adding 1.0 ml of 0.83% NH4 Cl to each tube, with shaking, and centrifuging the tubes quickly at 1500 rpm for 3 minutes. The supernatant was removed and the pellets were resuspended in 30 gl of PBS. The 30 μl solution was placed onto a polylysine-coated microscope slide and after 15 minutes the excess solution was removed from the slide. The cells on the slide were fixed with 1% glutaraldehyde for 5 minutes and then the excess glutaraldehyde was removed. The cells were stained with Giemsa Stain by immersing the slide in the stain for 25 minutes, rinsing the slide with water and allowing the slide to dry overnight.
The slides were examined with a light microscope at 100×power. SRBCs which were phagocytosed by neutrophils were visible as yellow cells within blue-stained neutrophils. The results for each reaction were expressed as a phagocytic index, representing the number of SRBCs phagocytosed per 100 neutrophils. […]

[15] = system: unstimulated human lymphocytes; assay: [3H]LXA4 uptake into lymphocytes; assay type: cell-based; conditions: Medium, 5 nM, 1-30 min
Protocol: Lymphocvtes: The lymphocyte-rich interface layer was taken at the Ficoll-Hypaque gradient step of the neutrophil purification procedure. Platelets were removed by slow-speed centrifugation (see below) and contaminating monocytes and neutrophils by adherence to plastic Petri dishes for 1 hour at 37 ° C.
as §2

[16] = molecular target: T1, specific lipoxin receptors; assay: [3H]LXA4 ligand binding to human neutrophils
Protocol: Influx rates were calculated by fitting the data points to a single exponential equation (Eq. 1). Results have been taken from three experiments based upon duplicate determinations. […] Specific binding was taken as the difference between total and non-specific binding. […] Results are from three separate experiments, each performed in triplicate.

[17] = system: LTD4- and LTB4-mediated inflammation; conditions: in vivo; cited from earlier work

## CCCCC[C@H](O)/C=C/C=C\C=C\C=C\[C@@H](O)[C@@H](O)CCCC(=O)O [LXA4, (5S,6R,15S)-trihydroxy-7,9,13-trans-11-cis-eicosatetraenoic acid]
[1]
  [3H]LXA4 Uptake Rate: 0.73 ± 0.15 fmol/10^6 cells/min
Human neutrophils
  efflux final value (relative cell content): 0.54±0.03
[2]
  renal vasoconstriction by LTD4: blocks renal vasoconstrictor actions
Lipoxin transport system
  final [3H]LXA4 uptake (combined data): 7.26±0.26 fmol/10^6 cells
  initial [3H]LXA4 influx rate (combined data): 0.57±0.09 fmol/10^6 cells/min
[3]
  vasodilation: elicit prompt vasodilation
[4]
  binding sites: ~ 1830 sites/cell
  half-time for binding: .15 s
Asthmatic patients
  bronchoconstriction: blocks bronchoconstriction
[5]
  pK' of the carboxylic acid moiety: ~ 3.8
[6]
  chemotaxis: inhibits chemotaxis
[7]
  [3H]LXA4 Uptake Rate: 0.11 ± 0.02 fmol/10^6 cells/min
Neutrophils [8]
  metabolic transformation in neutrophils: not subject to metabolic transformation
[9]
  [3H]LXA4 Uptake Rate: 0.0014 ± 0.0006 fmol/10^6 cells/min
[10]
  cell proliferation / colony formation: stimulates cell proliferation
[11]
  integrity after exposure to DISA, PCP, UK-5099, and mersalyl: preservation of the integrity
Protein kinase C (PKC)
  effect on PKC activity: enhance
[12]
  mononuclear cell-colony formation: stimulates
[13]
  [3H]LXA4 Uptake Rate: -0.0003 ± 0.0015 fmol/10^6 cells/min
Neutrophils [14]; 100 nM or 1000 nM, pH 7.4, 37° C., 30 minutes
  effect on neutrophil phagocytosis, phagocytic index: more effective at inhibiting phagocytosis than LXB4; also recorded: inhibit phagocytosis
Neutrophils [14]; extracellular pH 6.4, 7.4, 8.4
  pH-dependence of inhibition of neutrophil phagocytosis: increases as the extracellular pH is decreased
[15]
  [3H]LXA4 Uptake Rate: 0.0019 ± 0.0048 fmol/10^6 cells/min
[16]; Medium, 0.3 nM [3H]LXA4, 4° C., 5 min, no unlabeled LXA4
  [3H]LXA4 Binding, total: 1.05 ± 0.03 fmol/10^6 cells
[16]; Medium, + unlabeled LXA4 0.3 μM
  [3H]LXA4 Binding, non-specific: 0.40 ± 0.08 fmol/10^6 cells
[16]; displaced by 1,000-fold excess unlabeled LXA4
  specific binding as share of total binding: ~ 70%
[16]; pHo 6.40, + unlabeled LXA4 0.3 μM
  [3H]LXA4 Binding, non-specific: 0.39 ± 0.04 fmol/10^6 cells
[16]; pHo 6.40, no unlabeled LXA4
  [3H]LXA4 Binding, total: 1.02 ± 0.09 fmol/10^6 cells
[16]; pHo 8.40, + unlabeled LXA4 0.3 μM
  [3H]LXA4 Binding, non-specific: 0.42 ± 0.09 fmol/10^6 cells
[16]; pHo 8.40, no unlabeled LXA4
  [3H]LXA4 Binding, total: 1.19 ± 0.12 fmol/10^6 cells
[17]
  leukotriene-mediated inflammation: inhibits
